From the NIST ThermoML archive (doi:10.1021/je900058p) come the findings set out here.

One may read the refractive index as a measure of how strongly the sample bends light. One may read the mass density as mass per unit of volume. As usually defined, the vapor or sublimation pressure is the equilibrium pressure above the liquid or solid.

The structures appear in SMILES notation. ± gives the expanded uncertainty stated by the source.

The nature of series [1]: refractive index (Na D-line) (dimensionless). The settings on record: 293.13 K; 101.33 kPa; Liquid; Standard Abbe refractometry.
The conditions of series [2]: Liquid; for mass density: 293.13 K, 101.33 kPa.

Take `CCCCCO` [pentan-1-ol]: the refractive index in series [1] worked out at 1.4098 ± 0.0007. Besides, in series [2], the mass density was found to be 814.5 ± 0.4 kg/m3. Also, the “vapor or sublimation pressure” value in series [2] (410.86 K) came to 101.32 ± 1 kPa.

With `CCCCC(C)=O` [2-hexanone], the refractive index in series [1] stood at 1.4008 ± 0.0007. For the same compound, the mass density in series [2] is 811.2 ± 0.4 kg/m3. Also, the “vapor or sublimation pressure” value in series [2] (359.51 K) is on record as 26.66 ± 0.27 kPa; in series [2] (379.52 K) it was 53.33 ± 0.32 kPa; in series [2] (392.57 K), 79.99 ± 0.45 kPa; in series [2] (400.69 K), 101.32 ± 0.53 kPa.

Regarding `COc1ccccc1` [anisole], in series [1], the refractive index turned out to be 1.5171 ± 0.0007. In series [2], the mass density was 994.1 ± 0.2 kg/m3. Further, the “vapor or sublimation pressure” value in series [2] (383.1 K) was determined as 26.66 ± 0.25 kPa; in series [2] (404.24 K) it was 53.33 ± 0.3 kPa; in series [2] (417.99 K), 79.99 ± 0.43 kPa; in series [2] (426.54 K), 101.32 ± 0.5 kPa.
